Measurements published in US6239129A, “Cyano-indole serotonin-reuptake inhibitor compounds” (Adir et Compagnie, priority 1999, dated 2001).
pKi: −log10 of the molar value. Structures can show the parent of a compound that is named as a salt.

Target: T1, Serotonin-reuptake Sites (Rattus norvegicus, UniProt P31652)
T1 construct: The membranes are prepared from rat frontal cortex; from tissue; host or cells: rat frontal cortex membranes
Assay: Determination of Affinity for Serotonin-reuptake Sites in the Rat ([^3 H]-paroxetine competition)
Type: binding
Settings: read-out: dissociation constant Ki
Experimental: Determination of Affinity for Serotonin-reuptake Sites in the Rat
The incubation buffer contains 50 mM TRIS-HCl (pH 7.4), 120 mM NaCl and 5 mM KCl. Non-specific binding is determined using 10 μM citalopram. At the end of the incubation, the mixture is filtered through filters and washed three times with 5 ml of cooled buffer. The radioactivity retained on the filters is determined by liquid scintillation counting. The binding isotherms are analysed by non-linear regression to determine the IC50 values. The latter are converted into a dissociation constant (Ki) using the Cheng-Prusoff equation: […]

T1 sequence (P31652 whole entry): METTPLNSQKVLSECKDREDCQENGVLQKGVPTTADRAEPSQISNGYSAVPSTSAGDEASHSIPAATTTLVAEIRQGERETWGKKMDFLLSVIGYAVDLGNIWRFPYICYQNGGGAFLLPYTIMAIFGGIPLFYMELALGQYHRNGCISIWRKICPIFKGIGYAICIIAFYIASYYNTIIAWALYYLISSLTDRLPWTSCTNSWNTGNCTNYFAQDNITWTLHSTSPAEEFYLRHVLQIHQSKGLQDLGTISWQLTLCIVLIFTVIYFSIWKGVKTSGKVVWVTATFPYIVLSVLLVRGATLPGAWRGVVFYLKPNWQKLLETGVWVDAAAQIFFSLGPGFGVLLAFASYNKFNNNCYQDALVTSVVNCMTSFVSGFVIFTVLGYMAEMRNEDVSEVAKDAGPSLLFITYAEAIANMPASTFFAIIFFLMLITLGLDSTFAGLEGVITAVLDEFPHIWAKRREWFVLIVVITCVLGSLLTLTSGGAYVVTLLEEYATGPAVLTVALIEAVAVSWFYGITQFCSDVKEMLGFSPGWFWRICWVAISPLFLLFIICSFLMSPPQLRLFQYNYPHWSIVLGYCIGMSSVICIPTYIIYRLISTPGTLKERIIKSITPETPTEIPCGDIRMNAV

Structure (SMILES): COc1cncnc1N1CCN(CCCn2ccc3ccc(C#N)cc32)CC1 [Example 1, 1-{3-[4-(5-Methoxy-4-pyrimidinyl)-1-piperazinyl]propyl}-1H-indole-6-carbonitrile dihydrochloride]
- pKi: 8.01
